The values below are quoted from earlier work in paper PMC10425256, “Antioxidant and Enzyme Inhibitory Potential of Streptomyces sp. G-18 Grown in Various Media” (International Journal of Microbiology, 2023).

Regarding Cyclipostins, the “inhibition against lipase enzymes” value in the data set with lipase enzymes is given as “showed inhibition”.

For `CCCCC/C=C\C/C=C\C[C@@H](C[C@@H]1OC(=O)[C@H]1CCCCCC)OC(=O)[C@H](CC(C)C)NC=O` [lipstatin], in the data set on lipase enzymes, the “inhibition against lipase enzymes” value is recorded as “showed inhibition”.

Consider `CC(C)=CCC/C(C)=C/Cc1ccc(O)c2nc3cccc(O)c3nc12` [Geranylphenazinediol], for which the AChE inhibition result with AChE is reported as “low micromolar range”.
